Source: the supplement of paper PMC10307832

How the values were obtained:
Experiment in all cases: relative viability (nuclei count vs DMSO), 5 days (fraction); higher = more cells survive
Alpelisib + Olaparib = compound: Cc1nc(NC(=O)N2CCC[C@H]2C(N)=O)sc1-c1ccnc(C(C)(C)C(F)(F)F)c1 [Alpelisib] + O=C(c1cc(Cc2n[nH]c(=O)c3ccccc23)ccc1F)N1CCN(C(=O)C2CC2)CC1 [Olaparib] (partner 8 µM)
Procedure, shortened: (§1)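 Nuclei were stained with Hoechst during a one-step fixation (final 0.05% Triton X-100, 1% formaldehyde, 1 ug/ml Hoechst) carried out 5 days after dosing, then counted on 4× images. The cells, lung cancer lines in 1536-well plates, had been dosed by pin tool the day after seeding with one drug alone or a fixed anchor-drug dose plus five library-drug doses (not always all listed) in √10 steps. Relative viability is the nuclei count in treated wells divided by that in vehicle wells, and each value is the median of duplicate plates.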

OSI-027 + Decitabine = compound: COc1cccc2cc(-c3nc([C@H]4CC[C@H](C(=O)O)CC4)n4ncnc(N)c34)[nH]c12 [OSI-027] + Nc1ncn([C@H]2C[C@H](O)[C@@H](CO)O2)c(=O)n1 [Decitabine] (partner 2 µM)
Procedure, shortened: as §1

Alpelisib + Trametinib = compound: Cc1nc(NC(=O)N2CCC[C@H]2C(N)=O)sc1-c1ccnc(C(C)(C)C(F)(F)F)c1 [Alpelisib] + CC(=O)Nc1cccc(-n2c(=O)n(C3CC3)c(=O)c3c(Nc4ccc(I)cc4F)n(C)c(=O)c(C)c32)c1 [Trametinib] (partner 0.02 µM)
Procedure, shortened: as §1

OSI-027 + Dasatinib = compound: COc1cccc2cc(-c3nc([C@H]4CC[C@H](C(=O)O)CC4)n4ncnc(N)c34)[nH]c12 [OSI-027] + Cc1nc(Nc2ncc(C(=O)Nc3c(C)cccc3Cl)s2)cc(N2CCN(CCO)CC2)n1 [Dasatinib] (partner 0.075 µM)
Procedure, shortened: as §1

UMC-11
relative viability (Alpelisib + Olaparib; first compound 0.04 µM): 0.362 | relative viability (Alpelisib + Olaparib; first compound 0.1265 µM): 0.328 | relative viability (Alpelisib + Olaparib; first compound 0.4 µM): 0.389 | relative viability (Alpelisib + Olaparib; first compound 1.265 µM): 0.346 | relative viability (Alpelisib + Olaparib; first compound 4 µM): 0.315 | relative viability (OSI-027 + Decitabine; first compound 0.01 µM): 0.612 | relative viability (OSI-027 + Decitabine; first compound 0.03162 µM): 0.647 | relative viability (OSI-027 + Decitabine; first compound 0.1 µM): 0.52 | relative viability (OSI-027 + Decitabine; first compound 0.3162 µM): 0.492 | relative viability (OSI-027 + Decitabine; first compound 1 µM): 0.417 | relative viability (Alpelisib + Trametinib; first compound 0.04 µM): 0.696 | relative viability (Alpelisib + Trametinib; first compound 0.1265 µM): 0.628 | relative viability (Alpelisib + Trametinib; first compound 0.4 µM): 0.875 | relative viability (Alpelisib + Trametinib; first compound 1.265 µM): 0.67 | relative viability (Alpelisib + Trametinib; first compound 4 µM): 0.68 | relative viability (OSI-027 + Dasatinib; first compound 0.01 µM): 0.537 | relative viability (OSI-027 + Dasatinib; first compound 0.03162 µM): 0.457 | relative viability (OSI-027 + Dasatinib; first compound 0.1 µM): 0.404 | relative viability (OSI-027 + Dasatinib; first compound 0.3162 µM): 0.434 | relative viability (OSI-027 + Dasatinib; first compound 1 µM): 0.299
